From PubChem BioAssay (NCI)
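These data come from cells grown in 96-well plates and exposed to compound for 48 hours at five concentrations. GI50 = concentration required for 50% inhibition of growth. TGI: total growth inhibition.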

How the values were obtained:
Assay in all cases: NCI anticancer screen, dose series, 48 h
786-0 renal = system: 786-0 renal
A498 renal = system: A498 renal
A549 NSCLC = system: A549 NSCLC
ACHN renal = system: ACHN renal
BT-549 breast = system: BT-549 breast
CCRF-CEM leukemia = system: CCRF-CEM leukemia
COLO 205 colon = system: COLO 205 colon
DU-145 prostate = system: DU-145 prostate
EKVX NSCLC = system: EKVX NSCLC
HCC-2998 colon = system: HCC-2998 colon
HCT-116 colon = system: HCT-116 colon
HCT-15 colon = system: HCT-15 colon
HL-60(TB) leukemia = system: HL-60(TB) leukemia
HOP-62 NSCLC = system: HOP-62 NSCLC
HOP-92 NSCLC = system: HOP-92 NSCLC
HS 578T breast = system: HS 578T breast
HT29 colon = system: HT29 colon
IGROV1 ovarian = system: IGROV1 ovarian
K-562 leukemia = system: K-562 leukemia
KM12 colon = system: KM12 colon
LOX IMVI melanoma = system: LOX IMVI melanoma
M14 melanoma = system: M14 melanoma
MALME-3M melanoma = system: MALME-3M melanoma
MCF7 breast = system: MCF7 breast
MDA-MB-231 breast = system: MDA-MB-231 breast
MDA-MB-435 = system: MDA-MB-435
MOLT-4 leukemia = system: MOLT-4 leukemia
NCI-H226 lung = system: NCI-H226 lung
NCI-H23 lung = system: NCI-H23 lung
NCI-H460 lung = system: NCI-H460 lung
NCI-H522 lung = system: NCI-H522 lung
NCI/ADR-RES ovarian = system: NCI/ADR-RES ovarian
OVCAR-3 ovarian = system: OVCAR-3 ovarian
OVCAR-4 ovarian = system: OVCAR-4 ovarian
OVCAR-5 ovarian = system: OVCAR-5 ovarian
OVCAR-8 ovarian = system: OVCAR-8 ovarian
PC-3 prostate = system: PC-3 prostate
RPMI-8226 leukemia = system: RPMI-8226 leukemia
RXF 393 renal = system: RXF 393 renal
SF-268 CNS = system: SF-268 CNS
SF-295 CNS = system: SF-295 CNS
SF-539 CNS = system: SF-539 CNS
SK-MEL-2 melanoma = system: SK-MEL-2 melanoma
SK-MEL-28 melanoma = system: SK-MEL-28 melanoma
SK-MEL-5 melanoma = system: SK-MEL-5 melanoma
SK-OV-3 ovarian = system: SK-OV-3 ovarian
SN12C renal = system: SN12C renal
SNB-19 CNS = system: SNB-19 CNS
SNB-75 CNS = system: SNB-75 CNS
SR leukemia = system: SR leukemia
SW-620 colon = system: SW-620 colon
T-47D breast = system: T-47D breast
U251 CNS = system: U251 CNS
UACC-257 melanoma = system: UACC-257 melanoma
UACC-62 melanoma = system: UACC-62 melanoma
UO-31 renal = system: UO-31 renal
CAKI-1 renal = system: CAKI-1 renal
TK-10 renal = system: TK-10 renal

## CS(=O)(=O)Nc1cncc(-c2ccc3ncnc(Nc4ccc(F)c(Cl)c4)c3c2)c1
786-0 renal
  GI50: 2700 nM
  TGI: 14800 nM
A498 renal
  GI50: 570 nM
  TGI: 3200 nM
A549 NSCLC
  GI50: 3750 nM
  TGI: 17400 nM
ACHN renal
  GI50: 1690 nM
  TGI: > 100000 nM
BT-549 breast
  GI50: 1900 nM
  TGI: 7980 nM
CCRF-CEM leukemia
  GI50: 1380 nM
  TGI: 13000 nM
COLO 205 colon
  GI50: 1950 nM
  TGI: 5970 nM
DU-145 prostate
  GI50: 2250 nM
  TGI: 15200 nM
EKVX NSCLC
  GI50: 888 nM
  TGI: 7010 nM
HCC-2998 colon
  GI50: 4190 nM
  TGI: 16800 nM
HCT-116 colon
  GI50: 1970 nM
  TGI: 5770 nM
HCT-15 colon
  GI50: 3660 nM
  TGI: 16000 nM
HL-60(TB) leukemia
  GI50: 2080 nM
  TGI: 9620 nM
HOP-62 NSCLC
  GI50: 2510 nM
  TGI: 20200 nM
HOP-92 NSCLC
  GI50: 369 nM
  TGI: 4820 nM
HS 578T breast
  GI50: 1070 nM
  TGI: 4380 nM
HT29 colon
  GI50: 2430 nM
  TGI: 11400 nM
IGROV1 ovarian
  GI50: 340 nM
  TGI: 1910 nM
K-562 leukemia
  GI50: 3880 nM
  TGI: 20100 nM
KM12 colon
  GI50: 3490 nM
  TGI: 13300 nM
LOX IMVI melanoma
  GI50: 1730 nM
  TGI: 10200 nM
M14 melanoma
  GI50: 3330 nM
  TGI: 15100 nM
MALME-3M melanoma
  GI50: 2080 nM
  TGI: 13600 nM
MCF7 breast
  GI50: 1490 nM
  TGI: 8770 nM
MDA-MB-231 breast
  GI50: 2920 nM
  TGI: 17600 nM
MDA-MB-435
  GI50: 3920 nM
  TGI: 17000 nM
MOLT-4 leukemia
  GI50: 1600 nM
  TGI: 4650 nM
NCI-H226 lung
  GI50: 2570 nM
  TGI: 21300 nM
NCI-H23 lung
  GI50: 2410 nM
  TGI: 13100 nM
NCI-H460 lung
  GI50: 4220 nM
  TGI: 16000 nM
NCI-H522 lung
  GI50: 1010 nM
  TGI: 4100 nM
NCI/ADR-RES ovarian
  GI50: 15400 nM
  TGI: 60000 nM
OVCAR-3 ovarian
  GI50: 1580 nM
  TGI: 7190 nM
OVCAR-4 ovarian
  GI50: 4960 nM
  TGI: 96600 nM
OVCAR-5 ovarian
  GI50: 2400 nM
  TGI: 22000 nM
OVCAR-8 ovarian
  GI50: 3730 nM
  TGI: 23700 nM
PC-3 prostate
  GI50: 2690 nM
  TGI: 15000 nM
RPMI-8226 leukemia
  GI50: 2240 nM
  TGI: 5420 nM
RXF 393 renal
  GI50: 1490 nM
  TGI: 5870 nM
SF-268 CNS
  GI50: 2630 nM
  TGI: 18700 nM
SF-295 CNS
  GI50: 2790 nM
  TGI: 13000 nM
SF-539 CNS
  GI50: 2240 nM
  TGI: 11300 nM
SK-MEL-2 melanoma
  GI50: 1500 nM
  TGI: 3790 nM
SK-MEL-28 melanoma
  GI50: 2650 nM
  TGI: 15600 nM
SK-MEL-5 melanoma
  GI50: 1830 nM
  TGI: 4480 nM
SK-OV-3 ovarian
  GI50: 2090 nM
  TGI: 6540 nM
SN12C renal
  GI50: 2600 nM
  TGI: 15200 nM
SNB-19 CNS
  GI50: 2090 nM
  TGI: 18100 nM
SNB-75 CNS
  GI50: 434 nM
  TGI: 6920 nM
SR leukemia
  GI50: 1780 nM
  TGI: 10200 nM
SW-620 colon
  GI50: 3150 nM
  TGI: 11800 nM
T-47D breast
  GI50: 189 nM
  TGI: 2500 nM
U251 CNS
  GI50: 3030 nM
  TGI: 15200 nM
UACC-257 melanoma
  GI50: 4590 nM
  TGI: 23000 nM
UACC-62 melanoma
  GI50: 2220 nM
  TGI: 11800 nM
UO-31 renal
  GI50: 1760 nM
  TGI: 13800 nM

## CC(=O)c1ccc2c(c1)c1cc(C(C)=O)ccc1n2CCNC(C)C
786-0 renal
  GI50: 456 nM
  TGI: 3320 nM
A498 renal
  GI50: 398 nM
  TGI: 1890 nM
A549 NSCLC
  GI50: 433 nM
  TGI: 4310 nM
BT-549 breast
  GI50: 1290 nM
  TGI: 3970 nM
CAKI-1 renal
  GI50: 304 nM
  TGI: 10500 nM
CCRF-CEM leukemia
  GI50: 455 nM
  TGI: 2650 nM
COLO 205 colon
  GI50: 331 nM
  TGI: 1600 nM
DU-145 prostate
  GI50: 453 nM
  TGI: 5420 nM
EKVX NSCLC
  GI50: 548 nM
  TGI: 4970 nM
HCC-2998 colon
  GI50: 635 nM
  TGI: 4390 nM
HCT-116 colon
  GI50: 251 nM
  TGI: 3690 nM
HCT-15 colon
  GI50: 352 nM
  TGI: 3820 nM
HL-60(TB) leukemia
  GI50: 362 nM
  TGI: 2670 nM
HOP-62 NSCLC
  GI50: 717 nM
  TGI: 4630 nM
HOP-92 NSCLC
  GI50: 764 nM
  TGI: 4270 nM
HS 578T breast
  GI50: 828 nM
  TGI: 4770 nM
HT29 colon
  GI50: 342 nM
  TGI: 2180 nM
IGROV1 ovarian
  GI50: 341 nM
  TGI: 6730 nM
K-562 leukemia
  GI50: 332 nM
  TGI: 1810 nM
KM12 colon
  GI50: 427 nM
  TGI: 3400 nM
LOX IMVI melanoma
  GI50: 211 nM
  TGI: 526 nM
M14 melanoma
  GI50: 358 nM
  TGI: 1720 nM
MALME-3M melanoma
  GI50: 230 nM
  TGI: 596 nM
MCF7 breast
  GI50: 294 nM
  TGI: 1110 nM
MDA-MB-231 breast
  GI50: 516 nM
  TGI: 3160 nM
MDA-MB-435
  GI50: 364 nM
  TGI: 1440 nM
MOLT-4 leukemia
  GI50: 337 nM
  TGI: 1790 nM
NCI-H226 lung
  GI50: 281 nM
  TGI: 2190 nM
NCI-H23 lung
  GI50: 389 nM
  TGI: 2410 nM
NCI-H460 lung
  GI50: 308 nM
  TGI: 1810 nM
NCI-H522 lung
  GI50: 257 nM
  TGI: 1130 nM
NCI/ADR-RES ovarian
  GI50: 371 nM
  TGI: 8090 nM
OVCAR-3 ovarian
  GI50: 506 nM
  TGI: 3910 nM
OVCAR-4 ovarian
  GI50: 370 nM
  TGI: 2900 nM
OVCAR-5 ovarian
  GI50: 462 nM
  TGI: 5560 nM
OVCAR-8 ovarian
  GI50: 373 nM
  TGI: 3870 nM
PC-3 prostate
  GI50: 317 nM
  TGI: 1760 nM
RPMI-8226 leukemia
  GI50: 308 nM
  TGI: 1050 nM
RXF 393 renal
  GI50: 289 nM
  TGI: 1790 nM
SF-268 CNS
  GI50: 417 nM
  TGI: 3330 nM
SF-295 CNS
  GI50: 426 nM
  TGI: 2620 nM
SF-539 CNS
  GI50: 478 nM
  TGI: 2020 nM
SK-MEL-2 melanoma
  GI50: 569 nM
  TGI: 2230 nM
SK-MEL-28 melanoma
  GI50: 326 nM
  TGI: 1470 nM
SK-MEL-5 melanoma
  GI50: 291 nM
  TGI: 923 nM
SK-OV-3 ovarian
  GI50: 1250 nM
  TGI: 8760 nM
SN12C renal
  GI50: 325 nM
  TGI: 2070 nM
SNB-19 CNS
  GI50: 300 nM
  TGI: 1620 nM
SNB-75 CNS
  GI50: 383 nM
  TGI: 2410 nM
SR leukemia
  GI50: 142 nM
  TGI: 11400 nM
SW-620 colon
  GI50: 249 nM
  TGI: 2340 nM
T-47D breast
  GI50: 523 nM
  TGI: 13000 nM
TK-10 renal
  GI50: 531 nM
  TGI: 5020 nM
U251 CNS
  GI50: 386 nM
  TGI: 6050 nM
UACC-257 melanoma
  GI50: 296 nM
  TGI: 1310 nM
UACC-62 melanoma
  GI50: 250 nM
  TGI: 780 nM
UO-31 renal
  GI50: 200 nM
  TGI: 704 nM
